Measurements taken from patent US20060135768A1, “Synthesis for hydroxyalkylated heterocyclic bases” (RIBAPHARM INC., priority 2002, published 2006).
≈ marks a conversion by molar mass, not a printed value.

Assay: Solubility of the heterocyclic base (adenine) in reaction solvents
Assay type: physicochemical

What does the source list for `Nc1ncnc2nc[nH]c12` [adenine]?
Solubility at 150° C. (solvent DEF): 13.9 mg/mL (≈ 103 mM); Solubiity at RT (solvent DEF): 1.36 mg/mL; Solubility at 150° C. (solvent DMA): 37.0 mg/mL (≈ 274 mM); Solubiity at RT (solvent DMA): 4.00 mg/mL; Solubility at 150° C. (solvent DMF): 29.0 mg/mL (≈ 215 mM); Solubiity at RT (solvent DMF): 2.90 mg/mL
